Experimental data as given in patent publication US20210177778A1, “EXOSOME PRODUCTION PROMOTER” (DAICEL CORPORATION, priority 2017, published 2021).

Tested on: Human neuroblastoma-derived SH-SY5Y cell
Test: Number of exosome particles released by SH-SY5Y cells after sphingolipid addition (qNano)
Type: cell-based
Settings: 10 μM sphingolipid, 24 hours, particles per mg cell protein
Protocol: Human neuroblastoma-derived SH-SY5Y cell was used as the cultured cell. After the cell was inoculated in a 6-well plate at 2.5×10^5 cells/well together with a medium (50% Ham's F12/50% E-MEM) and cultured at 37° C. for 24 hours, the animal ceramide (Cer), sphingomyelin (SM), or glucosylceramide (GuCer) sphingolipid was each added to each well. The sphingolipid was suspended in a serum-free medium (50% Ham's F12/50% E-MEM) containing 3% bovine serum albumin (BSA), and added so that the concentration in the well was 10 μM. The control was performed when the added amount of sphingolipid was 0 μM. […]
The exosome recovered by the centrifugation method was suspended in a HEPES/KCl buffer, and then the number of particles was measured with a nanoparticle analyzer qNano (Izon Inc.). The measured value was expressed as the number of particles per protein mass (mg) of the derived cell calculated by the BCA method. […]
Experimental Example 2 was performed under the same conditions as in the above Experimental Example 1 except that the konjac-derived glucosylceramide (kGluCer) or the konjac-derived ceramide (kCer) are used as the sphingolipid and sphingolipids having concentrations of 5 μM, 7.5 μM, or 10 μM, respectively, were added to the cell in place of a concentration of 0 μM (control), and the number of exosome particles was measured.

| SMILES | number of exosome particles compared to the control |
| --- | --- |
| CCCCCCCCCCCCC/C=C/[C@@H](O)[C@H](CO)NC(=O)CCCCC [C6 ceramide, N-hexanoyl-D-erythro-sphingosine] | further promoted |
| CCCCCCCCCCCCC/C=C/[C@@H](O)[C@H](CO)NC(=O)CCCCCCCCCCCCCCCCC [C18 ceramide, N-stearoyl-D-erythro-sphingosine] | further promoted |
